Holding throughout (format): physicochemical
The nature of data set [1]: Dynamic Vapor Sorption (DVS). Particulars: for form by post-DVS XRPD analysis: after exposure to DVS humidity conditions. How it is done: Approximately, 10-20 mg of sample was placed into a mesh vapour sorption balance pan and loaded into a DVS Intrinsic dynamic vapour sorption balance by Surface Measurement Systems. The sample was subjected to a ramping profile from 40-90% relative humidity (RH) at 10% increments, maintaining the sample at each step until a stable weight had been achieved (dm/dt 0.004%, minimum step length 30 minutes, maximum step length 500 minutes) at 25° C. After completion of the sorption cycle, the sample was dried using the same procedure to 0% RH and then a second sorption cycle back to 40% RH. Two cycles were performed. The weight change during the sorption/desorption cycles were plotted, allowing for the hygroscopic nature of the sample to be determined. XRPD analysis was then carried out on any solid retained.

Data set [2] is described as follows: Stability Studies - One Week Study. Conditions: 40° C./75% RH or 80° C./under ambient light for 1 week. How it is done: About 15 mg of Compound 1, Forms 1 and 2 were separately placed at either 40° C./75% RH or 80° C./under ambient light for 1 week. The resulting solids were analysed by XRPD and HPLC purity. No changes in Form 1 or Form 2 were observed under these conditions after 1 week.

Data set [3] can be described thus: Stability Studies - Eight Week Study. Particulars: 40° C./75% RH (uncapped), 80° C. (capped), ambient light and temperature (approx. 22° C.). How it is done:
About 5 mg of Compound 1, Form 1 was weighed into twenty-four, 1.5 mL glass vials. Each vial was placed at either 40° C./75% RH (uncapped vial), 80° C. (capped vial) and under ambient light and temperature (approx. 22° C., capped vial) for a total of 8 weeks. […] was removed from each condition for XRPD, ^1H NMR and HPLC purity analysis at 1 week, 2 weeks, 4 weeks and 8 weeks.

`C[C@@H]1CNC(=O)c2cc3ccc(C(=O)Nc4cnn(Cc5ccc(N)cc5)c4)nc3n21.Cl` [Compound 1, Form 1, (R)—N-(1-(4-aminobenzyl)-1H-pyrazol-4-yl)-9-methyl-6-oxo-6,7,8,9-tetrahydropyrido[3′,2′:4,5]pyrrolo[1,2-a]pyrazine-2-carboxamide hydrochloride]: in data set [1] (listed as Form 1 of Compound 1, hydrochloride), the “form by post-DVS XRPD analysis” value is given as “remained as Form 1”. Besides, the “water uptake by DVS” value in data set [1] (at 90% RH, 25° C.) is 0.2 equiv. of water. In data set [1] (at 90% RH, 25° C., listed as Form 1 of Compound 1, hydrochloride), the “change in mass / mass uptake by DVS” value was “+0.8%”. Moreover, in data set [1] (ramping 40-90% RH, 25° C., two cycles), the “hygroscopic nature by DVS” value was “slightly hygroscopic”. Besides, the “changes by XRPD and HPLC purity” value in data set [2] is “No changes”. The “change in purity by HPLC” value in data set [3] (8 weeks) is recorded as “no significant change”. For the same molecule, the “change by XRPD and NMR analysis” value in data set [3] (after 8 weeks) is “no change”.
As to `C[C@@H]1CNC(=O)c2cc3ccc(C(=O)Nc4cnn(Cc5ccc(N)cc5)c4)nc3n21.Cl` [Compound 1, Form 2, (R)—N-(1-(4-aminobenzyl)-1H-pyrazol-4-yl)-9-methyl-6-oxo-6,7,8,9-tetrahydropyrido[3′,2′:4,5]pyrrolo[1,2-a]pyrazine-2-carboxamide hydrochloride], in data set [1] (listed as Form 2 of Compound 1, hydrochloride), the “form by post-DVS XRPD analysis” value is “no change in form”. For the same molecule, the “change in mass / mass uptake by DVS” value in data set [1] (at 90% RH, 25° C., listed as Form 2 of Compound 1, hydrochloride) was determined as 1.8%.

Values taken from US12378245B2, “Crystalline forms of an RSK inhibitor” (PHOENIX MOLECULAR DESIGNS, priority 2019, dated 2025).
